According to US11472766B2, “Lipid nanoparticle composition” (Suzhou Abogen Biosciences Co., Ltd., priority 2020, dated 2022):

What was measured:
[1] = Encapsulation efficiency of lipid nanoparticles (Quant-it Ribogreen RNA quantification assay); format: physicochemical; conditions: LNP encapsulating hEPO mRNA; Table 3
In short: (§1)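 Ribogreen fluorescence quantifies encapsulated mRNA and backscatter (173°) DLS sizes the particles. These are microfluidically mixed four-component LNPs in DPBS after dialysis.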

[2] = system: human erythropoietin (hEPO) mRNA; experiment: Animal study: hEPO expression after tail vein injection of LNPs encapsulating hEPO mRNA (serum ELISA); format: in vivo; conditions: hEPO level, female ICR mice, 0.5 mg/kg, 6 hours post administration, class symbols, Table 3
In short: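 Female ICR mice (6-8 weeks) received LNPs carrying hEPO mRNA by tail vein injection at 0.5 mg/kg, with MC3 LNPs dosed the same way as positive control. Blood was drawn at set times (e.g., 6 h) and serum separated. hEPO was quantified by ELISA and reported as μg/ml.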

[3] = Lipid nanoparticle size by dynamic light scattering (Malvern Zetasizer Nano ZS); format: physicochemical; conditions: LNP: cationic lipid/DSPC/cholesterol/PEG-lipid 50:10:38.5:1.5, hEPO mRNA; Table 3
In short: as §1

[4] = Apparent pKa of LNP formulations (TNS fluorescence assay); conditions: LNP cationic lipid/DSPC/cholesterol/DMG-PEG 50/10/38.5/1.5 mol %, Table 3
Experimental: The apparent pKa of each formulation was determined using an assay based on fluorescence of 2-(p-toluidino)-6-napthalene sulfonic acid (TNS). LNP formulations comprising of cationic lipid/DSPC/cholesterol/DMG-PEG (50/10/38.5/1.5 mol %) in PBS were prepared as described above. TNS was prepared as a 300 uM stock solution in distilled water. LNP formulations were diluted to 0.1 mg/ml total lipid in 3 mL of buffered solutions containing 50 mM sodium citrate, 50 mM sodium phosphate, 50 mM sodium borate, and 30 mM sodium chloride where the pH ranged from 3 to 9. An aliquot of the TNS solution was added to give a final concentration of 0.1 mg/ml and following vortex mixing fluorescence intensity was measured at room temperature in a Molecular Devices Spectramax iD3 spectrometer using excitation and mission wavelengths of 325 nm and 435 nm. A sigmoidal best fit analysis was applied to the fluorescence data and the pKa value was measured as the pH giving rise to half-maximal fluorescent intensity.

Encapsulation Efficiency [1]	polydispersity [3]	size nm [3]	Apparant Pka [4]	Structure (SMILES)	Expression at 6 h (μg/ml) [2]
90.7%	0.067	74.68 nm	6.364	CCCCCCCCC(CCCCCC)COC(=O)CCCCCN(CCCCCC(=O)OCC(CCCCCC)CCCCCCCC)CCN(CCCC)C1CCC(O)CC1 (stereo not drawn) [Compound 58]	A (≥2)
97.7%	0.008	93.24 nm	6.682	CCCCCCCCC(CCCCCC)COC(=O)CCCCCN(CCCCCC(=O)OCC(CCCCCC)CCCCCCCC)CCN(C)C1CC(O)C1 (stereo not drawn) [Compound 59]	B (≥1 and <2)
92.1%	0.086	68.6 nm	6.329	CCCCCCCCC(CCCCCC)COC(=O)CCCCCN(CCCCCC(=O)OCC(CCCCCC)CCCCCCCC)CCN(CCC)C1CC(O)C1 (stereo not drawn) [Compound 60]	B (≥1 and <2)
36.2%	0.156	244.8 nm	6.438	CCCCC/C=C\CCCOC(=O)CCCCCN(CCCCCC(=O)OCCC/C=C\CCCCC)CCN(CCO)C1CCC1 [Compound 62]	D (<0.1)
85.9%	0.088	94.11 nm	6.406	CCCCC/C=C\CCCC(CCC/C=C\CCCCC)OC(=O)CCCCCN(CCCCCC(=O)OCCC/C=C/CCCCC)CCN(CCO)C1CCC1 [Compound 63]	B (≥1 and <2)
93.0%	0.066	63.83 nm	6.544	CCCCCCCCC(CCCCCCCC)COC(=O)CCCCCN(CCCCCC(=O)OCC(CCCCCCCC)CCCCCCCC)CCN(CCO)C1CCCOC1 (stereo not drawn) [Compound 65]	A (≥2)
80.0%	0.064	63.86 nm	6.036	CCCCC/C=C\CCCC(CCC/C=C\CCCCC)COC(=O)CCCCCN(CCCCCC(=O)OCC(CCC/C=C\CCCCC)CCC/C=C\CCCCC)CCN(CCO)C1CCC1 [Compound 66]	B (≥1 and <2)
79.3%	0.05	64.75 nm	6.341	CCCCCCCCC(CCCCCCCC)COC(=O)CCCCCN(CCCCCC(=O)OCC(CCCCCCCC)CCCCCCCC)CCN(CCCC)C1CCC(O)CC1 (stereo not drawn) [Compound 67]	B (≥1 and <2)
80.1%	0.052	56.96 nm	6.279	CCCCCCCCC(CCCCCCCC)COC(=O)CCCCCN(CCCCCC(=O)OCC(CCCCCCCC)CCCCCCCC)CCN(CCC)C1CCCC1O (stereo not drawn) [Compound 68]	C (≥0.1 and <1)
84.3%	0.034	77.54 nm	6.381	CCCCCCCCC(CCCCCCCC)COC(=O)CCCCCN(CCCCCC(=O)OCC(CCCCCCCC)CCCCCCCC)CCN(CCC)C1CCC(O)CC1 (stereo not drawn) [Compound 70]	A (≥2)
93.0%	0.038	91.13 nm	6.613	CCCCCCCC(CCCCCCC)COC(=O)CCCCCN(CCCCCC(=O)OCC(CCCCCCC)CCCCCCC)CCN(CCC)C1CCC(O)CC1 (stereo not drawn) [Compound 71]	A (≥2)
93.5%	0.109	113.9 nm	6.712	CCCCCCC(CCCCCC)COC(=O)CCCCCN(CCCCCC(=O)OCC(CCCCCC)CCCCCC)CCN(CCC)C1CCC(O)CC1 (stereo not drawn) [Compound 72]	A (≥2)
93.2%	0.076	54.58 nm	6.2	CCCCCCCCC(CCCCCCCC)COC(=O)CCCCCN(CCCCCC(=O)OCC(CCCCCCCC)CCCCCCCC)CCN(CCCCC)C1CCC(O)CC1 (stereo not drawn) [Compound 74]	B (≥1 and <2)
90.06%	0.038	69.81 nm	6.352	CCCCCCC(CCCCCC)COC(=O)CCCCCN(CCCCCC(=O)OCC(CCCCCC)CCCCCC)CCN(CCO)C1CCC1 [Compound 77]	A (≥2)
89.2%	0.154	52.19 nm	5.735	CCCCCCCCC(CCCCCCCC)COC(=O)CCCCCN(CCCCCC(=O)OCC(CCCCCCCC)CCCCCCCC)CCN(CCO)C1CC(F)(F)C1 [Compound 79]	C (≥0.1 and <1)
85.2%	0.06	76.71 nm	6.201	CCCCCCCCCCCOC(=O)CCCCCN(CCCCCC(=O)OCC(CCCCCCCC)CCCCCCCC)CCN(CCO)C1CC1 [Compound 80]	B (≥1 and <2)
94.6%	0.028	75.89 nm	6.476	CCCCCCCCCCCOC(=O)CCCCCN(CCCCCC(=O)OCC(CCCCCCCC)CCCCCCCC)CCN(CCO)C1CCC1 [Compound 81]	A (≥2)
94.7%	0.025	87.68 nm	6.406	CCCCCCCCCCCOC(=O)CCCCCN(CCCCCC(=O)OCC(CCCCCCCC)CCCCCCCC)CCN(CCO)C1CCCC1 [Compound 82]	A (≥2)
93.5%	0.087	67.62 nm	6.328	CCCCCCCCCCCOC(=O)CCCCCN(CCCCCC(=O)OCC(CCCCCCCC)CCCCCCCC)CCN(CCO)C1CCCCC1 [Compound 83]	B (≥1 and <2)
93.2%	0.083	65.55 nm	6.064	CCCCCCCCCCCOC(=O)CCCCCN(CCCCCC(=O)OCC(CCCCCCCC)CCCCCCCC)CCN(CCO)C1CCCCCC1 [Compound 84]	B (≥1 and <2)
93.7%	0.065	82.91 nm	6.46	CCCCC(CCCC)CCCCCC(=O)OCCCCCN(CCCCCOC(=O)CCCCCC(CCCC)CCCC)CCN(CCO)C1CCC1 [Compound 85]	B (≥1 and <2)
93.8%	–	76.56 nm	6.32	CCCCCCC(CCCCCC)CCCCCC(=O)OCCCCCN(CCCCCOC(=O)CCCCCC(CCCCCC)CCCCCC)CCN(CCO)C1CCC1 [Compound 86]	C (≥0.1 and <1)
91.2%	0.037	65.71 nm	6.515	CCCCCCCCC(CCCCCCCC)COC(=O)CCCCCN(CCCCCC(=O)OCC(CCCCCCCC)CCCCCCCC)CCN(CCO)C1CCOC1 (stereo not drawn) [Compound 87]	A (≥2)
